Reference: patent publication US10782295B2, “Cysteine-reactive ligand discovery in proteomes” (THE SCRIPPS RESEARCH INSTITUTE, priority 2013, dated 2020)

Tests used:
ZAK = ZAK (Homo sapiens, UniProt Q9NYL2); test: competitive isoTOP-ABPP, MDA-MB-231 soluble proteome; assay type: binding; set-up: directly in native proteomes; endogenous in cells; host or cells: MDA-MB-231; details: 60 min; for R value (isoTOP-ABPP ratio heavy/light) for IA-labeled cysteine of ZAK: 100 μM LDE, peptide FDDLQFFENC*GGGSFGSVYR
Experimental: Here, we envisioned that isoTOP-ABPP could be advanced to discover and quantify reactions between cysteines in proteomes and any electrophilic compound. In this advanced, ‘competitive’ version of isoTOP-ABPP (FIG. 1a), a proteome is treated with an electrophile (experimental sample) or DMSO (control sample). Both proteomic samples are then labeled with the IA probe and conjugated by CuAAC to light and heavy azide-biotin tags, respectively. The light and heavy samples are then mixed and subjected to our described isoTOP-ABPP protocol for enrichment, identification, and quantification of IA-labeled cysteines^30. Electrophile-modified cysteines are quantified by measuring the MS1 chromatographic peak ratios (R values) for heavy (DMSO-treated) over light (electrophile-treated) samples, with higher R values reflecting greater sensitivity to the electrophile. In this format, competitive isoTOP-ABPP can assay electrophiles against 1000+ cysteines in parallel directly in native proteomes without requiring any chemical modification to the electrophiles themselves.
Competitive isoTOP-ABPP experiments were performed in quadruplicate using the soluble proteome of the human breast cancer cell line MDA-MB-231 cell line. Proteomes were treated with 100 μM HNE, 15d-PGJ2, or 2-HD, for 60 minutes, followed by the IA-probe (100 μM, 60 min) A total of ˜1400 cysteine reactivities were quantified across the aggregate data set, with at least 900 cysteine reactivities quantified for each LDE (FIG. 2a) more than 750 of which were quantified for all the three electrophiles.
The MDA-MB-231 cell proteome was treated with varying concentrations of HNE (5, 10, 50, 100 and 500 μM) for 60 min and then the IA-labeling profile of each reaction was quantitatively compared to a DMSO-control sample by isoTOP-ABPP.
HNE was purchased from EMD biosciences, 15d-PGJ2 was purchased from Cayman Chemicals and 2-HD was purchased from Santa Cruz Biotechnology. Proteome samples were diluted to a 4 mg protein/mL solution in PBS. For each profiling experiment, one aliquot of the proteome sample (0.5 mL) was treated with 100 μM of LDE using 5 μL of a 10 mM stock and the other aliquot was treated with 5 μL of either ethanol (for HNE and 15d-PGJ2) or DMSO (for 2-HD) as control. For the concentration-dependent profiling experiments using HNE, aliquots of the proteomes (0.5 mL each) were treated with 5, 10, 50, 100 and 500 μM of HNE using 5 μL of 0.5, 1.0, 5, 10 and 50 mM of stock solution, respectively. After 60 minutes of treatment at room temperature, both the LDE-treated and control aliquots were passed through a NAP-5 Sephadex column (GE healthcare) to remove any unreacted LDE. The volume of each aliquot was increased to 1 mL with the concentration at 2 mg/mL after this step. […]

[1] = tested on: cysteines in ZAK, EEF2, RTN4 and FN3KRP; test: in situ competitive isoTOP-ABPP in MDA-MB-231 cells; assay type: cell-based, human; details: MDA-MB-231 cells treated with 50 or 100 μM HNE
Experimental: By combining the R values at all 5 HNE concentrations, we could extrapolate IC50 values for […] of IA probe-labeling for ˜700 of the 1100 cysteines (FIG. 3a).
After MDA-MB-231 cells were grown to 100% confluency, the media was removed and replaced with fresh serum-free media containing 100 μM HNE (20 μL of […] stock in 10 mL media). A control flask of cells was treated with 10 mL of serum-free media containing 20 uL of ethanol in parallel. The cells were incubated at 37° C. for 1 hour and harvested as detailed above to prepare HNE-treated and control proteomes, respectively. […]
IA-probe labeled peptides were identified by SEQUEST2 and DTASelect3, and the quantification of heavy/light ratios (isoTOP-ABPP ratios, R) was performed by an in-house software (CIMAGE) as previously described. The software was advanced to be able to detect and quantify cases where near complete […] blockade of IA-probe labeling was achieved (e.g., very small or no light peak) and assign an empirical ratio cut-off of 15 to each of such cases. […] In the case of probe-modified peptides that were sequenced in one, but not the other runs, a featured algorithm of CIMAGE was utilized to identify the corresponding peak pairs in the runs without the SEQUEST identification and obtain quantification as previously described. […]

Chain of ZAK (Q9NYL2 whole entry): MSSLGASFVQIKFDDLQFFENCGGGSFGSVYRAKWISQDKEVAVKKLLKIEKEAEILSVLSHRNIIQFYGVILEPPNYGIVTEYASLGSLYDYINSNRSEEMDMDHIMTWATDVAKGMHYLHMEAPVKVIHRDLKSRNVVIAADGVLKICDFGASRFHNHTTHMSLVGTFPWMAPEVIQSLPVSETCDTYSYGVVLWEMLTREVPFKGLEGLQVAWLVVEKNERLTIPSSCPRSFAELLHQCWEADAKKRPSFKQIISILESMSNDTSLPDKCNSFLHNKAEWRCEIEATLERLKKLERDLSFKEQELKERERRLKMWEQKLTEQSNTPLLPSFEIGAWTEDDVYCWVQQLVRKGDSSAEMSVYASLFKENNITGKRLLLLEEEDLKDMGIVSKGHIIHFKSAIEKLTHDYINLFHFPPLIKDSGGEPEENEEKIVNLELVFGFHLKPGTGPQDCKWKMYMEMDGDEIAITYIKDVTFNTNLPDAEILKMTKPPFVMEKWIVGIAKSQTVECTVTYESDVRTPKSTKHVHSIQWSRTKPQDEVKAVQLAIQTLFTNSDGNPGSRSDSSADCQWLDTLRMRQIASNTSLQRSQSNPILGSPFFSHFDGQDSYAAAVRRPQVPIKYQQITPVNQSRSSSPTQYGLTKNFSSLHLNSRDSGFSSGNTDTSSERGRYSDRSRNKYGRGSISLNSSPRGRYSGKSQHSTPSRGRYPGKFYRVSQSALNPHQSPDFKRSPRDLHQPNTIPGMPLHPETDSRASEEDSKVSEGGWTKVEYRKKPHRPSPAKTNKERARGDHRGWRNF

SMILES | R value (isoTOP-ABPP ratio heavy/light) for IA-labeled cysteine of ZAK (ZAK) | inhibition of the most HNE-sensitive cysteines in situ [1] | blockade of IA-probe labeling of Cys22 of ZAK (ZAK; 100 μM)
CCCCCCCCCCCCC/C=C/C=O [2-HD, 2-trans-hexadecenal] | 1.05 |  | 
CCCCCC(O)/C=C/C=O (centres unmarked) [4-HNE, 4-Hydroxynonenal] | >15 | strongly inhibited | completely blocked
CCCCC/C=C/C=C1/C(=O)C=C[C@@H]1C/C=C\CCCC(=O)O [PGJ2, 15-deoxy-Δ12,14-prostaglandin J2] | 4.24 |  | 
